Earlier results in patent US9446009B2, “Methods for treating conditions of the nail unit” (Hallux, Inc., priority 2004, dated 2016).
Converted amounts (≈) assume the structure as drawn.

Tests used:
Details in all cases: in vitro
[1] = tested on: Trichophyton rubrum
[2] = tested on: Trichophyton verrucosum
[3] = tested on: Trichophyton tonsurans
[4] = tested on: Trichophyton mentagrophytes

SMILES	MIC Ranges [1]	MIC Ranges [2]	MIC Ranges [3]	MIC Ranges [4]
Cc1cc(C2CCCCC2)n(O)c(=O)c1 [Ciclopiroxolamine]	<0.03 to 8 µg/mL	4 µg/mL (≈ 19.3 µM)	0.125 to 1 µg/mL	0.5 to 1 µg/mL
OC(Cn1cncn1)(Cn1cncn1)c1ccc(F)cc1F [Fluconazole]	–	16 µg/mL (≈ 52.2 µM)	0.25 to 8 µg/mL	16 to 32 µg/mL
COC1=CC(=O)C[C@@H](C)[C@]12Oc1c(Cl)c(OC)cc(OC)c1C2=O [Griseofulvin]	0.016 to 8 µg/mL	1 µg/mL (≈ 2.83 µM)	0.5 to 1 µg/mL	0.016 to 0.125 µg/mL
CC(=O)N1CCN(c2ccc(OCC3COC(Cn4ccnc4)(c4ccc(Cl)cc4Cl)O3)cc2)CC1 (centres unmarked) [Ketoconazole]	–	4 µg/mL (≈ 7.53 µM)	0.016 to 0.125 µg/mL	0.008 to 4 µg/mL

Continued, values first:

MIC Ranges [1]	MIC Ranges [2]	MIC Ranges [3]	MIC Ranges [4]	SMILES
<0.016 to 1 µg/mL	8 µg/mL (≈ 25.8 µM)	≦0.016-0.5 mcg/ml	0.125 to 0.25 µg/mL	c1ccc(-c2ccc(C(c3ccccc3)n3ccnc3)cc2)cc1 (centres unmarked) [Bifonazole]
0.008 to 4 µg/mL	4 µg/mL (≈ 9.61 µM)	0.016 to 0.25 µg/mL	1 µg/mL (≈ 2.4 µM)	Clc1ccc(COC(Cn2ccnc2)c2ccc(Cl)cc2Cl)c(Cl)c1 (centres unmarked) [Miconazole]
≦0.0001-1 ^ mcg/ml	1 µg/mL (≈ 3.43 µM)	≦0.001-0.008 mcg/ml	≦S0.001 mcg/ml	CN(C/C=C/C#CC(C)(C)C)Cc1cccc2ccccc12 [Terbinafine]
